Experimental data as given in ChEMBL document CHEMBL1148291, “Prediction of human volume of distribution values for neutral and basic drugs. 2. Extended data set and leave-class-out statistics” (J Med Chem, 2004).

What was measured:
[1] = Ionization constant (pKa); type: physicochemical
[2] = in vitro; conditions: human, plasma
Description: Unbound fraction (plasma)

[3] = clinical; conditions: human, in vivo
Description: Observed volume of distribution

[4] = human, plasma
Description: Unbound fraction (plasma)

Row | Compound | pKa [1] | fraction unbound [2] | Vd [3] [L/kg] | pKa | Fu [4]
1 | CN(C)CCCN1c2ccccc2Sc2ccccc21 [PROMAZINE] | 9.28 | 0.11 | 7.5 | – | –
2 | CC(CCc1ccccc1)NCC(O)c1ccc(O)c(C(N)=O)c1 (stereo not drawn) [LABETALOL] | 7.4 | – | – | – | –
3 | CC(CN(C)C)CN1c2ccccc2CCc2ccccc21 (stereo not drawn) [TRIMIPRAMINE] | 9.24 | 0.05 | 31 | – | –
4 | C[N+](C)([O-])CCC=C1c2ccccc2CCc2ccccc21 [AMITRIPTYLINOXIDE] | – | 0.2 | 1.2 | Not Active | –
5 | CC(C)(C)NC[C@H](O)COc1nsnc1N1CCOCC1 [TIMOLOL] | 8.8 | – | 3.5 | – | –
6 | C[C@@H](c1ncncc1F)[C@](O)(Cn1cncn1)c1ccc(F)cc1F [VORICONAZOLE] | – | 0.42 | 4.6 | Not Active | –
7 | OC(CNCC(O)C1CCc2cc(F)ccc2O1)C1CCc2cc(F)ccc2O1 (stereo not drawn) [NEBIVOLOL] | 8.22 | 0.02 | 11.2 | – | –
8 | Cc1ccc(O)c(C(CCN(C(C)C)C(C)C)c2ccccc2)c1 (single isomer, unassigned) [TOLTERODINE] | 9.8 | – | – | – | –
9 | CC(C)NCC(O)c1ccc(NS(C)(=O)=O)cc1 (stereo not drawn) [SOTALOL] | 9.76 | 1 | 0.9 | – | –
10 | Cc1ccccc1OCC(O)CNCCOc1ccc(C(N)=O)cc1 (stereo not drawn) [TOLAMOLOL] | 7.9 | 0.09 | 3.2 | – | –
11 | CN1CCN2c3ncccc3Cc3ccccc3C2C1 (stereo not drawn) [MIRTAZAPINE] | 7.3 | – | 4.8 | – | –
12 | C[C@]12CCC(=O)C=C1CC[C@@H]1[C@@H]2[C@@H](O)C[C@@]2(C)[C@H]1CC[C@]2(O)C(=O)CO [HYDROCORTISONE] | – | 0.09 | 0.44 | Not Active | –
13 | CCN(C)C(=O)Oc1cccc([C@H](C)N(C)C)c1 [RIVASTIGMINE] | 8.99 | 0.6 | 2.2 | – | –
14 | CC(C)NCC(O)COc1ccc(CCOCC2CC2)cc1 (stereo not drawn) [BETAXOLOL] | 9.21 | – | 6.08 | – | –
15 | CCN(CC)CCCC(C)Nc1c2ccc(Cl)cc2nc2ccc(OC)cc12 (stereo not drawn) [QUINACRINE] | 7.73 | – | 124 | – | –
16 | OCCN1CCN(CCCN2c3ccccc3Sc3ccc(Cl)cc32)CC1 [PERPHENAZINE] | 8.11 | – | 20 | – | 0.07
17 | C#CCCCC(=O)c1cc(C(C)(C)C)c(O)c(C(C)(C)C)c1 [TEBUFELONE] | – | 0.0007 | – | Not Active | –
18 | CNCCC=C1c2ccccc2CCc2ccccc21 [NORTRIPTYLINE] | 10.1 | – | 19.1 | – | –
19 | CC(C)NCC(O)COc1ccc(COCCOC(C)C)cc1 (stereo not drawn) [BISOPROLOL] | 9.57 | 0.7 | 3.31 | – | –
20 | O=C1CN=C(c2ccccn2)c2cc(Br)ccc2N1 [BROMAZEPAM] | – | 0.39 | – | Not Active | –
21 | CNCC[C@@H](Oc1ccccc1C)c1ccccc1 [ATOMOXETINE] | 10.1 | – | 0.85 | – | –
22 | CC(C)(C)NCC(O)COc1cccc2c1C[C@H](O)[C@H](O)C2 (stereo partly drawn) [NADOLOL] | – | – | 1.94 | – | 0.7
